The values that follow come from article PMC6722648, “Phenazine Derivatives with Anti-Inflammatory Activity from the Deep-Sea Sediment-Derived Yeast-Like Fungus Cystobasidium laryngis IV17-028” (Marine Drugs, 2019).

Read-outs that look alike come from different tables or passages of the source.

Data set [1] concerns LPS-induced NO production in RAW 264.7 cells. In words: NO assay: nitrite quantification (Griess) in LPS-stimulated macrophages. The data set is classed as cell-based, murine. The note with it: Mus musculus, RAW264.7, LPS 200 ng/mL, 24 h, read-out: EC50 against NO assay. Here is the method: NO2^− accumulation was used as an indicator of NO production as described previously. RAW 264.7 cells were plated at 5 × 10^5 cells/mL, pre-treated with various concentrations (0.3, 1, 3, 10 or 30 μg/mL) of 1–7 and stimulated with LPS (200 ng/mL) for 24 h. The supernatants were mixed with an equal volume of Griess reagent (1% sulfanilamide, 0.1% naphthylethylenediamine dihydrochloride and 2% phosphoric acid) and incubated at room temperature for 10 min. NaNO2 was used to generate a standard curve, and the concentration of nitrite in the medium was determined by measuring optical density at 540 nm. Cell viability was determined by XTT assay as described previously. And it was confirmed that the concentration of compounds used in this study has no significant effect on cell viability.

The nature of data set [2]: Stability to light and on storage (observation).

In the case of `C[C@@H](O)c1cccc2nc3c(C(=O)O)cccc3nc12` [Compound 4, (R)-saphenic acid], the EC50 in data set [1] (compounds 0.3-30 μg/mL) came out at 6.15 µg/mL; in data set [1], 22.9 µM. Further, the “colour change of yellow needle form in light” value in data set [2] (day light as well as fluorescent light, also previously reported [9]) is recorded as “turned brown after several hours”. In data set [2] (methanol and dimethyl sulfoxide, under the light), the “colour change in hydrophilic solvents under the light” value is “quickly turned from yellow into orange”.

Take `O=C(O)c1cccc2nc3ccccc3nc12` [Compound 5, phenazine-1-carboxylic acid]: the figures for the EC50 in data set [1] (compounds 0.3-30 μg/mL) and in data set [1] were 17.1 µg/mL and 76.1 µM, respectively.

In the case of `C[C@@H](O)c1cccc2nc3c([C@@H](C)O)cccc3nc12` [Compound 3, saphenol], the EC50 in data set [1] (compounds 0.3-30 μg/mL) was 14.7 µg/mL; in data set [1], 54.7 µM.

On to `CO[C@H](C)c1cccc2nc3c(C(=O)O)cccc3nc12` [Compound 6], for which the results for the EC50 in data set [1] (compounds 0.3-30 μg/mL) and in data set [1] were 5.53 µg/mL and 19.6 µM, respectively.

On to `C[C@@H](O)c1cccc2nc3c(C(N)=O)cccc3nc12` [Compound 2, saphenic amide], for which, in data set [1] (compounds 0.3-30 μg/mL), the EC50 is above 30 µg/mL.

For the compound `CC(OC(=O)c1ccccc1N)c1cccc2nc3c(C(=O)O)cccc3nc12` (centres unmarked) [Compound 1, 6-[1-(2-aminobenzoyloxy)ethyl]-1-phenazinecarboxylic acid], the EC50 stood at 18.1 µg/mL in data set [1] (compounds 0.3-30 μg/mL) and 46.8 µM in data set [1]. Also, in data set [2] (in the dark and fridge), the storage stability result was “changelessly stored in the dark and fridge for several weeks”. Further, the “stability under the light” value in data set [2] (under the light) is given as “easily changed under the light”.

As to `CC(=O)c1cccc2nc3c(C(=O)O)cccc3nc12` [Compound 7, 6-acetyl-phenazine-1-carboxylic acid], the EC50 in data set [1] (compounds 0.3-30 μg/mL) amounted to 5.32 µg/mL; in data set [1] it was 20 µM.
